Assay results from the CheMixHub drug solubility set.

Assay: xn = mol fraction of the nth substance listed, in the solute-free solvent

O=C(O)c1ccc(C(=O)O)o1 + C1COCCO1 + O
solubility (g/100 g solution)
Details	303.15 K	308.15 K	313.15 K	318.15 K	323.15 K	328.15 K	333.15 K	338.15 K	343.15 K
x2 = 0.1	1.85	1.98	2.15	2.38	2.63	2.92	3.24	3.48	3.73
x2 = 0.2	3.44	3.54	3.81	4.02	4.28	4.56	4.78	5.12	5.5
x2 = 0.3	3.8	4.14	4.34	4.76	5.21	5.62	6.07	6.46	7.05
x2 = 0.4	4.76	5.23	5.55	5.79	6.04	6.37	6.72	7.27	7.87
x2 = 0.5	4.37	4.77	5.03	5.38	5.75	6.1	6.48	6.97	7.5
x2 = 0.6	3.77	4.11	4.39	4.66	5	5.3	5.63	6.04	6.44
x2 = 0.7	3.03	3.32	3.51	3.71	3.94	4.25	4.48	4.89	5.36
x2 = 0.8	2.38	2.62	2.75	2.96	3.11	3.32	3.55	3.81	4.1
x2 = 0.9	1.3	1.42	1.54	1.73	1.93	2.11	2.35	2.61	2.87

O=C1CCc2ccc(OCCCCN3CCN(c4cccc(Cl)c4Cl)CC3)cc2N1 + CCC(C)=O + CC(C)=O
solubility (g/100 g solution)
Details	278.15 K	283.15 K	288.15 K	293.15 K	298.15 K	303.15 K	308.15 K	313.15 K	318.15 K
x2 = 0.1	0.779	0.97	1.13	1.44	1.75	2.16	2.61	3.34	4.18
x2 = 0.2	0.882	1.07	1.25	1.61	1.94	2.32	2.83	3.58	4.41
x2 = 0.3	0.948	1.16	1.34	1.71	2.09	2.46	3.02	3.74	4.62
x2 = 0.4	1.01	1.22	1.43	1.78	2.19	2.59	3.21	3.88	4.8
x2 = 0.5	1.05	1.28	1.5	1.86	2.28	2.71	3.34	4.01	4.96
x2 = 0.6	1.09	1.34	1.57	1.93	2.36	2.82	3.46	4.13	5.1
x2 = 0.7	1.12	1.38	1.63	1.99	2.43	2.91	3.54	4.23	5.21
x2 = 0.8	1.15	1.43	1.68	2.06	2.49	2.99	3.62	4.3	5.27
x2 = 0.9	1.17	1.47	1.72	2.12	2.54	3.06	3.68	4.35	5.31

CC(=O)NC(CCC(N)=O)C(=O)O (stereo unspecified) + O + CO
solubility (g/100 g solution)
Details	293.15 K	298.15 K	303.15 K	308.15 K	313.15 K	318.15 K
x2 = 0.1998	1.22	1.48	1.76	2.06	2.62	3.27
x2 = 0.4906	2.54	2.73	3.45	4.16	5.01	5.92
x2 = 0.6921	3.1	3.54	4.77	5.99	7.07	8.56
x2 = 0.7712	3.1	3.37	4.17	4.97	6.05	7.41
x2 = 0.8999	3.14	3.34	4.37	5.12	5.77	7.05

COC1=CC(=O)CC(C)C12Oc1c(Cl)c(OC)cc(OC)c1C2=O (stereo unspecified) + CC(C)=O + CC(C)O
solubility (g/100 g solution)
Details	283.15 K	288.15 K	293.15 K	298.15 K	303.15 K	308.15 K	313.15 K	318.15 K	323.15 K
x2 = 0.1	0.176	0.236	0.261	0.31	0.375	0.463	0.602	0.688	0.843
x2 = 0.2	0.338	0.422	0.511	0.55	0.668	0.817	0.967	1.11	1.3
x2 = 0.3	0.587	0.663	0.787	0.871	1.04	1.22	1.41	1.64	1.96
x2 = 0.4	0.84	0.915	1.06	1.23	1.44	1.7	1.94	2.17	2.51
x2 = 0.5	1.23	1.4	1.5	1.62	1.85	2.16	2.51	2.8	3.19
x2 = 0.6	1.56	1.76	1.94	2.08	2.34	2.72	3.08	3.41	3.89
x2 = 0.7	1.81	2.09	2.35	2.55	2.87	3.3	3.65	4.05	4.58
x2 = 0.8	2.16	2.39	2.72	2.95	3.38	3.76	4.19	4.67	5.21
x2 = 0.9	2.56	2.71	3.08	3.33	3.78	4.3	4.68	5.15	5.53

COC1=CC(=O)CC(C)C12Oc1c(Cl)c(OC)cc(OC)c1C2=O (stereo unspecified) + CC(=O)CC(C)C + CC(C)O
solubility (g/100 g solution)
Details	283.15 K	288.15 K	293.15 K	298.15 K	303.15 K	308.15 K	313.15 K	318.15 K	323.15 K
x2 = 0.1	0.154	0.185	0.226	0.307	0.335	0.47	0.53	0.62	0.76
x2 = 0.2	0.251	0.304	0.345	0.441	0.514	0.683	0.713	0.852	1.01
x2 = 0.3	0.353	0.405	0.473	0.568	0.67	0.869	0.938	1.11	1.3
x2 = 0.4	0.433	0.519	0.591	0.73	0.812	1.04	1.09	1.27	1.46
x2 = 0.5	0.533	0.589	0.688	0.841	0.939	1.19	1.23	1.42	1.62
x2 = 0.6	0.595	0.655	0.751	0.902	1.03	1.27	1.33	1.5	1.72
x2 = 0.7	0.642	0.758	0.833	0.943	1.08	1.31	1.37	1.58	1.77
x2 = 0.8	0.675	0.753	0.823	0.973	1.1	1.33	1.39	1.59	1.79
x2 = 0.9	0.675	0.727	0.817	0.955	1.1	1.29	1.35	1.51	1.68

COC1=CC(=O)CC(C)C12Oc1c(Cl)c(OC)cc(OC)c1C2=O (stereo unspecified) + CCC(C)=O + CC(C)O
solubility (g/100 g solution)
Details	283.15 K	288.15 K	293.15 K	298.15 K	303.15 K	308.15 K	313.15 K	318.15 K	323.15 K
x2 = 0.1	0.162	0.217	0.254	0.338	0.391	0.463	0.543	0.669	0.836
x2 = 0.2	0.326	0.374	0.44	0.557	0.606	0.77	0.892	1.05	1.26
x2 = 0.3	0.497	0.571	0.668	0.821	0.894	1.11	1.28	1.52	1.79
x2 = 0.4	0.684	0.779	0.9	1.11	1.23	1.44	1.68	1.93	2.25
x2 = 0.5	0.96	1.07	1.21	1.4	1.59	1.85	2.11	2.4	2.79
x2 = 0.6	1.22	1.37	1.51	1.75	1.98	2.26	2.58	2.92	3.41
x2 = 0.7	1.5	1.66	1.8	2.07	2.31	2.62	2.97	3.34	3.79
x2 = 0.8	1.7	1.87	2.04	2.37	2.6	2.94	3.29	3.75	4.16
x2 = 0.9	1.84	2.02	2.22	2.58	2.81	3.18	3.52	4	4.41

O=C(O)c1ccc(C(=O)O)o1 + C1CCOC1 + O
solubility (g/100 g solution)
Details	293.15 K	298.15 K	303.15 K	308.15 K	313.15 K	318.15 K	323.15 K	328.15 K	333.15 K
x2 = 0.1	1.53	1.63	1.73	1.9	2.08	2.35	2.63	2.88	3.15
x2 = 0.2	3.7	3.93	4.22	4.48	4.77	5.08	5.38	5.73	6.11
x2 = 0.3	4.89	5.24	5.6	5.94	6.31	6.69	7.1	7.45	7.84
x2 = 0.4	6.39	6.62	6.87	7.22	7.6	7.91	8.25	8.62	9.02
x2 = 0.5	6.7	6.95	7.21	7.48	7.76	8.1	8.47	8.86	9.32
x2 = 0.6	6.58	6.9	7.24	7.5	7.81	8.16	8.54	9.01	9.52
x2 = 0.7	6.04	6.39	6.76	7.09	7.43	7.77	8.14	8.5	8.9
x2 = 0.8	4.95	5.3	5.68	5.96	6.26	6.51	6.79	7.11	7.47
x2 = 0.9	3.55	3.67	3.81	3.98	4.16	4.33	4.51	4.74	4.98
